In patent US7592025B2, “Vehicles for oral care with magnolia bark extract” (GIC Innovations Company, priority 2005, dated 2009):

Assays:
incubated saliva = assay: MIC of surface active agents and emulsifiers by two-fold serial dilution in nutrient broth; assay type: cell-based; settings: for germ-kill efficacy (in words): assessment of Table 9 results; for MIC (ppm): incubated saliva, 24 hours at 37° C.
Description: (§1) To evaluate the germ-kill efficacy and synergist effect when two or more germ-kill actives are combined, testing was performed to determine the ratio of MBE to surface active agent. The germ-kill active and/or surface active agent were dissolved in ethanol or sterile water to give an initial concentration 0.1% to 1%. The solution was diluted with a nutrient broth to give an initial concentration of 0.05% to 0.5%, which was then serially diluted two-fold so that each subsequent dilution contained 50% of the compound concentration of the previous dilution while maintaining a constant level of nutrients for each dilution. These dilutions were inoculated with representative oral microorganisms, or incubated saliva, and incubated for 24 hours at 37° C. For each surface active agent, the lowest dilution that was not turbid was registered as the MIC. The MBC was determined by transferring 10 microliter of liquid from non-turbid tubes to fresh growth media and incubated for 48 hours.

S. mutans = assay: MIC and fractional inhibitory index (FIC) of combinations by two-fold serial dilution; assay type: cell-based, Streptococcus mutans; settings: 24 hours at 37° C., ratio as in label
Description: as §1
(1) where an FIC value of less than 1.0 is synergistic, an FIC between 1.0 and 2.0 is additive, and an FIC greater than 2.0 is antagonistic.

[1] = test system: bacteria from freshly-collected stimulated whole saliva (plaque biofilm); assay: Mixed culture saliva biofilm on saliva-coated hydroxyapatite discs, timed exposure to actives; assay type: cell-based; settings: for pH (of medium): second series (Table 7)
Description: Although useful to show the comparative effect of Magnolia Bark Extract on biofilm formation and MIC growth, the foregoing test procedure may not effectively mimic the in vivo exposure of an oral care product to a developing plaque biofilm. In an in vivo situation, the active could be exposed to the plaque for a defined period of time at a set frequency (for example, for 5 minutes, three times a day). Therefore, a series of comparative experiments were conducted to mimic the in vivo use of potential active ingredients. To perform the tests the saliva compositions listed below in Tables 2 and 3 were prepared.
A mixed culture system that utilizes the bacteria from freshly-collected stimulated whole saliva was used. Saliva cell pellets were used to inoculate saliva-coated hydroxyapatite (S-HA) discs. The discs were placed in 24-well cell culture plates and incubated for up to 3 days. Biofilms were exposed to actives on days 2 and 3 (starting at 18 hours), and quantified on day 4. The number of bacteria was determined by spectrophotometric absorbance or optical density (OD) at 600 nm. The five phases of the experiment were: pellicle formation; bacterial attachment; biofilm growth; exposure to actives; and bacterial enumeration.
To form the pellicles, HA Discs were ultrasonically washed in deionized water and air-dried, then autoclaved. The discs were placed in a 24-well plate with 1 ml 50% sterile saliva (1 part sterile whole saliva: 1 part saliva buffer, filter sterilize after preparation) for 2 hours on slow agitation at room temperature. […]
After overnight incubation (day 2), discs were exposed to controls and actives. […] On day 4 the discs were removed from the medium, the medium pH was measured to obtain an indication of metabolic activity, and the discs were placed into tubes with 2.5 ml PBS, vortexed for 20 sec, and then placed into the ultrasonic bath for another 20 sec. The suspension was transferred into cuvettes and the bacterial cell density determined by OD measurements at 600 nm. […]

Row | Molecule | germ-kill efficacy (in words) (incubated saliva) | MIC (ppm) (incubated saliva) | further results
1 | Sodium Stearoyl Lactylate | weak or non | >3000 ppm | 
2 | Cocamidopropyl Betaine | good |  | 
3 | Sucrose Stearate | weak or non | >500 ppm | 
4 | N=C(NCCCCCCNC(=N)NC(=N)Nc1ccc(Cl)cc1)NC(=N)Nc1ccc(Cl)cc1.O=C(O)[C@H](O)[C@@H](O)[C@H](O)[C@H](O)CO.O=C(O)[C@H](O)[C@@H](O)[C@H](O)[C@H](O)CO [Chlorhexidine gluconate, reference compound] |  | 2 ppm | MIC/ppm (S. mutans): 2 ppm
5 | [H]/N=C(\N/C(=N/[H])NCCCCCCNC(=N)NC(=N)Nc1ccc(Cl)cc1)Nc1ccc(Cl)cc1 [CHX, Chlorhexidine] |  |  | pH (of medium, indication of metabolic activity) ([1]; CHX 0.12%, exposure one minute two times a day, day 4): 8.8; pH (of medium) ([1]; CHX 0.1% (1000 ppm)): 8.8
6 | Sodium Brasslate | moderate | 500 ppm | 
7 | CCCCCCCCCCCCOS(=O)(=O)[O-].[Na+] [SLS, Sodium Lauryl Sulfate] | good |  | pH (of medium) ([1]; SLS 1000 ppm): 5.7
8 | CCCCCCCCCCCC(=O)OCCOCCOCCOCCOCCOCCOCCOCCOCCOCCOCCOCCOCCOCCOCCOCCOCCOCCOCCOCCOCC(OCCOCCOCCOCCOCCOCCOCCOCCOCCOCCOCCOCCOCCOCCOCCOCCOCCOCCOCCOCCO)C1OCC(OCCOCCOCCOCCOCCOCCOCCOCCOCCOCCOCCOCCOCCOCCOCCOCCOCCOCCOCCOCCO)C1OCCOCCOCCOCCOCCOCCOCCOCCOCCOCCOCCOCCOCCOCCOCCOCCOCCOCCOCCOCCO (stereo not shown) [Tween 20, Polysorbate 20] | weak or non |  | 
9 | Sucrose Distearate | weak or non | >500 ppm | 
